Like-named read-outs stand apart in the source and are kept apart here.
What was measured:
breast epithelium = settings: 20 μM luminal, cited from earlier work
[1] = system: apical K+ channels of human colonic mucosa; assay: Short circuit current of human colonic epithelium ex-vivo (FIG. 12); settings: 30 mM mucosal; normal colon; 0.1 mM amiloride; elevated serosal K+
Protocol: The potassium permeability of the apical membrane of human colonic mucosa (P^Ka) was determined in surgical specimens of controls and grossly normal-appearing mucosa obtained 10-30 cm proximal to colorectal adenocarcinomas. The mucosa was, mounted in Using chambers and the basolateral, membrane resistance and voltage were nullified by elevating the K^+ in the serosal bathing solution. The apical sodium (Na^+) conductance was blocked with 0.1 mM amiloride. This protocol reduces the equivalent circuit model of the epithelium to an apical membrane conductance and electromotive force in parallel with the paracellular pathway as has been verified by microelectrode studies. […] In cancer-bearing colon the reduction in Isc is to −65 μA/cm^2. The serosal bath was remained constant at 125 mM [K].

[2] = system: benign breast epithelial cells; assay: Cell membrane potential, potentiometric fluorescent probe (FIG. 7), benign cells; format: cell-based, human; settings: estradiol added to the culture media; approximately −50 mV in its absence
Protocol: (§1) Measurements were made using a potentiometric fluorescent probe, and ratiometric measurements, which are calibrated using valinomycin and [K^+]-gradients. Ψs were measured in the presence (closed circles) and absence (open circles) of estradiol (the active, metabolite of estrogen). Each symbol is the mean measurement. The upper error bar is the standard error of the mean, and the lower error bar is the 95% confidence level for the observations. The addition of estrogen to cultured breast epithelial cells results in an instantaneous increase in Ψ (data not shown) as well as the transepithelial potential see. FIG. 8. Transepithelial potential (VT) of an epithelium is the sum of the apical (luminal) cell membrane potential (VA) and the basolateral (abluminal) cell membrane potential (VBL). Therefore VT=VA+VBL (changes in VA and/or VBL will therefore alter VT or transepithelial potential). […] Malignant and transformed cells have a Ψ of between −31 and −35 mV in the absence of estradiol and approximately 50 mV when estradiol is present in the culture medium.

[3] = system: Malignant and transformed cells; assay: Cell membrane potential, potentiometric fluorescent probe (FIG. 7), malignant and transformed cells; format: cell-based, human; settings: estradiol present in the culture medium; −31 to −35 mV in its absence
Protocol: as §1

[4] = system: malignant human breast epithelial cells; assay: Transepithelial potential of monolayers in Ussing chambers (FIG. 8), malignant epithelia; format: cell-based
Protocol: (§2) It should be noted, that the instantaneous response, illustrated in FIG. 8, is greater in malignant epithelia, whereas the chronic or sustained exposure to estradiol results in a lower increase in TEP (transepithelial, electropotential) in malignant cells. Concurrent measurement of surface electropotential and impedance allow the more accurate diagnosis of cancer. […] The cells were grown, as monolayers on Millipore filters and grew to confluence in 7 to 10 days. The epithelia were then mounted in modified Using chambers and the TEP was measured using a voltage clamp. Increasing doses of estradiol between 0 and 0.8 μM were added (x-axis). The transepithelial potential was measured after each addition and the TEP was measured (y-axis). The different dose response is apparent for benign and malignant epithelia. Malignant epithelia have a lower TEP but undergo an instantaneous increase in TEP of approximately 9 mV (becomes more electronegative and reaches a level of <−6 mV) after exposure to only 0.1 μM estradiol and then depolarize to approximately −2 mV with increasing doses of estradiol up to about 0.5 μM. […] 0.3 μM and then remain persistently elevated (higher electro negativity), unlike the malignant epithelia, with increasing doses of estradiol.

[5] = system: benign human breast epithelial cells; assay: Transepithelial potential of monolayers in Ussing chambers (FIG. 8), benign epithelia; format: cell-based; settings: increasing doses 0 to 0.8 μM
Protocol: as §2

colonocyte cell membrane = settings: cited from earlier work
distal colon = assay: Transepithelial potential (VT) of colon during treatment; format: in vivo, CF1 mice; settings: administered over the same period (four weeks)

**Q.** What does the source list for `N=C(N)NC(=O)c1nc(Cl)c(N)nc1N` [amiloride]?
**A.** increase in transepithelial resistance (breast epithelium): 17%; depolarization of the transepithelial potential (change) (breast epithelium; from −5.9±0.5 mV, mean±SEM): +3.1±0.5 mV

**Q.** With `CC[N+](CC)(CC)CC` [TEA] as the compound, how does the “effect on short circuit current (Isc)” value [1] read?
**A.** abrupt increase in Isc

**Q.** With `C[C@]12CC[C@@H]3c4ccc(O)cc4CC[C@H]3[C@@H]1CC[C@@H]2O` [estradiol, 17-β-estradiol] as the compound, how does the “cell membrane potential (Ψ)” value [2] read?
**A.** ~−70 mV

**Q.** What about the “cell membrane potential (Ψ)” value [3] of the same compound?
**A.** approximately 50 mV

**Q.** And the TEP level reached ([4]; 0.1 μM)?
**A.** < −6 mV

**Q.** What about the “instantaneous increase in TEP” value ([4]; 0.1 μM) of the same compound?
**A.** approximately 9 mV

**Q.** And the “TEP after depolarization with increasing doses” value ([4]; up to about 0.5 μM)?
**A.** approximately −2 mV

**Q.** What about the “dose at which the TEP response peaks” value [5] of the same compound?
**A.** ~0.3 µM

**Q.** Which “VA (apical membrane voltage)” value (colonocyte cell membrane; after 6 weeks of treatment, from −74.9 mV) does the source give for `CNNC` [DMH, 1,2 dimethylhydrazine] here?
**A.** −61.4 mV

**Q.** And the “VA (apical membrane voltage)” value (colonocyte cell membrane; by 20 weeks of treatment)?
**A.** −34 mV

**Q.** Which “effect on transepithelial potential (VT)” value (distal colon) does the source give for `O=c1[nH]cc(F)c(=O)[nH]1` [5-fluorouracil] here?
**A.** did not cause a reduction in VT

Reference: patent US8332025B2, “Method and system for detecting electrophysiological changes in pre-cancerous and cancerous tissue and epithelium” (Epi-Sci, LLC, priority 2005, dated 2012)
